The text below walks through data of patent US7495004B2, “Purine derivatives as liver X receptor agonists” (Glaxo Group Limited, priority 2002, dated 2009).

For experiment [1], the target named is T1, LXRα ligand binding domain (Homo sapiens, UniProt Q13133).
T1 construct: His tag; made in house
T1 sequence (Q13133 183-447): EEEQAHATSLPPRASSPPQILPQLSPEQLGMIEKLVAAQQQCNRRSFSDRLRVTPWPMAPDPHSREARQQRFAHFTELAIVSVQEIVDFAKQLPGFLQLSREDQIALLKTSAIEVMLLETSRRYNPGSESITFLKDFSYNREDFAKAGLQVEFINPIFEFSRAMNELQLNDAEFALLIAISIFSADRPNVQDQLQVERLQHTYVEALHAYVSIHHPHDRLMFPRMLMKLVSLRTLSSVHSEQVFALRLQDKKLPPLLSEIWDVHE
T1 sequence (Q15788 676-700 partner): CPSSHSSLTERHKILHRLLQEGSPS
Nature of the experiment: Assay for LXRα activity (HTRF, SRC-1 peptide recruitment). To be noted: 1 μM; over a background reading of 10000 fluorescence units. The class given is biochemical. The procedure:
The assay for LXRα was run according to the procedures of Example 1, above using his-tagged LXRα ligand binding domain (amino acids 183-447 of Genbank accession number U22662, with the 14th amino acid corrected to A from R). Percentage control is relative to 24(S),25-epoxycholesterol.
In this assay 1 μM 24(S),25-epoxycholesterol gave a reading of 20000 fluorescence units over a background reading of 10000 fluorescence units.
On the technique in general: TR-FRET usually uses a lanthanide donor and a delayed reading to cut background.

Experiment [2] deals with T2, human LXRβ ligand binding domain (Homo sapiens, UniProt P55055).
T2 construct: made in house; host or cells: E. coli BL21 (DE3), vector pRSETa
T2 sequence (P55055 184-460 limits assumed): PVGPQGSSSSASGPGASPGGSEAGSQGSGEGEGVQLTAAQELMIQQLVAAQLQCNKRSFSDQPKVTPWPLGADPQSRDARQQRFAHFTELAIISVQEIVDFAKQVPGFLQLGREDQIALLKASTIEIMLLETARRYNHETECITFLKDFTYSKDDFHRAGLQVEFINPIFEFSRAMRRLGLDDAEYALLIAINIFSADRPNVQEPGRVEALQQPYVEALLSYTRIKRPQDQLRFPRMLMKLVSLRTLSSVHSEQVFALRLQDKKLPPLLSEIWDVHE
T2 sequence (Q15788 676-700 partner limits assumed): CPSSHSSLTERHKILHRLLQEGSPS
Nature of the experiment: Assay for LXRβ activity (HTRF, SRC-1 peptide recruitment). The format is biochemical. Conditions: 1 μM; over a background reading of 10000 fluorescence units. How it is done:
A modified polyhistidine tag (MKKGHHHHHHG) (SEQ ID No. 1) was fused in frame to the human LXRβ ligand binding domain (amino acids 185-461 of Genbank accession number U07132) and subeloned into the expression vector pRSETa (Invitrogen) under the control of an IPTG inducible T7 promoter. The human LXRβ ligand binding domain was expressed in E. coli strain BL21 (DE3). Ten-liter fermentation batches were grown in Rich PO4 media with 0.1 mg/mL Ampicillin at 25° C. for 12 hours, cooled to 9° C. and held at that temperature for 36 hours to a density of OD600=14. At this cell density, 0.25 mM IPTG was added and induction proceeded for 24 hours at 9° C., to a final OD600=16. Cells were harvested by centrifugation (20 minutes, 3500 g, 4° C.), and concentrated cell slurries were stored in PBS at −80° C.
Typically 25-50 g of cell paste is resuspended in 250-500 mL TBS, pH 8.0 (25 mM Tris, 150 mM NaCl). Cells are lysed by passing 3 times through an APV Rannie MINI-lab homogenizer, and cell debris is removed by centrifugation (30 minutes, 20,000 g, 4° C.). […] After washing to baseline absorbance with equilibration buffer, the column is washed with approximately one column volume of TBS pH […] containing 95 mM imidazole. […] After washing to baseline absorbance with the dilution buffer the protein is eluted with a gradient from 50-500 mM NaCl. […]

Consider `C[C@H](CC[C@@H]1OC1(C)C)[C@H]1CC[C@H]2[C@@H]3CC=C4C[C@@H](O)CC[C@]4(C)[C@H]3CC[C@]12C` [24(S),25-epoxycholesterol], for which, in experiment [1], the “reading in LXRα assay” value worked out at 20000 fluorescence units. The “reading in LXRβ assay” value in experiment [2] came to 20000 fluorescence units.
